Several values for one entry are separate records, joined by “and”; a condition that tells them apart may be missing. Equal values may be shown once. Read-outs that look alike come from different tables or passages of the source.
How the values were obtained:
[1] = molecular target: T1, human serum albumin (HSA) (Homo sapiens, UniProt P02768); assay: Fluorescence emission spectrum (quenching) of HSA with carbamate pesticides; type: binding; conditions: for Ksv (37°) / ΔG(37°) / Binding distance/r / Number of binding sites/n: modelling table; for Kq / Ksv / n (number of binding sites) / Kd / Ka (binding constant): pH 7.4; for R (binding distance): Förster energy transfer; for fluorescence of HSA quenched by pesticide: titration of pesticide; for ΔH^0 / ΔS^0: Van't Hoff, 296-310 K
Description: the mixed solution to be tested was preheated at […] for 3 minutes, and the emission spectrum of HSA with carbamate pesticides was measured at 300-500 nm . The excitation wavelength was set at 280 nm , and the slit width for both excitation and emission was 15 nm; the HSA concentration was kept constant at 5×10^−7 M, and the pesticide concentration was (0-105)×10^−7 M.
The internal filtering effect of fluorescence signal was corrected according to the following formula: Fcor=Fobsexp[(Aex+Aem)/2] (1);
in this formula, Fcor and Fobs represent corrected fluorescence signal and observed fluorescence signal, respectively, and Aex and Aem represent absorbance of the mixed solution to be tested at excitation wavelength and emission wavelengths, respectively; the quenching constant, number of binding sites, binding constant, free energy and binding distance of different drugs were obtained by fluorescence emission spectra, and a BP neural network model was obtained. Specifically, they were obtained as follows:
There is a linear relationship between F0/F and [Q] to distinguish whether it is static quenching or dynamic quenching. The fluorescence quenching data are analyzed by Stern-Volmer equation to clarify the quenching mechanism: F0/F=1+KSV[Q]=1+Kqτ0[Q] (2);
in the formula, F0 and F are fluorescence signals […] quencher, respectively. Ksv is Stern-Volmer quenching constant; Kq is a quenching rate constant of biomolecules; τ0 is the average lifetime of biomolecules without quencher (about 10^−8 s); [Q] is the concentration of quencher.
The maximum dynamic quenching rate constant of all kinds of quenchers on polymers was 2.0×10^10 L·mol^−1·s^−1. Static quenching and dynamic quenching could be judged according to this value. If K^q was greater than 2.0×10^10 L·mol^−1·s^−1, it belonged to static quenching. Otherwise, it belonged to dynamic quenching.
In this part, the binding sites and binding constants between carbamate pesticides and HSA were calculated. The following formula was used to calculate the number of binding sites (n) and the binding constant (Ka) of carbamate pesticides and HSA: log[(F0−F)/F]=log Ka+nlog[Q] (3);
The interactions between biological molecules and drug molecules were weak intermolecular interactions, including hydrogen bonds, van der Waals forces, electrostatic forces and hydrophobic interactions. By using Van't Hoff equation, the thermodynamic constants of drug-protein interaction were obtained, and the main types of drug-protein interaction were judged according to the changes of binding constants under different conditions. LnK=−ΔH^0/RT+ΔS^0/R (4); ΔG^0=ΔH^0−TΔS^0 (5);
There is a relationship among energy transfer efficiency E, distance r between energy donor and energy receptor and energy transfer distance R0. E=1−F/F0=R0^6/(R0^6+r^6) (6);
E represents the transfer efficiency between donor and receptor, r is the average distance between donor and receptor, and R0 is the critical distance when the transfer efficiency is 50%. R0^6=8.79×10^−K^2N^−4φJ (7)
K^2 is the orientation related to the geometry of donor and receptor of dipole. For random orientation in fluid, K^2=2/3; N is the average refractive index of the medium in the wavelength range with obvious spectral overlap, and the refractive index of water and organic matter is 1.336; φ is the quantum yield of donor, and the quantum yield of tryptophan in HSA is about 0.118; J represents the influence of spectral overlap between the emission spectrum of the donor and the absorption spectrum of the receptor, and can be calculated by the following formula: j=ΣF(λ)ϵ(λ)λ^4Δλ/ΣF(λ) Δλ (8);
F(λ) is the corrected fluorescence signal of the donor in the wavelength range from λ to (λ+Δλ), while ϵ(λ) is the extinction coefficient of the receptor at λ.

[2] = molecular target: T1, human serum albumin (HSA); assay: Circular dichroism spectrum, secondary structure (α-helix content) of HSA; conditions: HSA 2×10^−6 M
Description: the mixed solution to be tested was preheated at […] for 2-5 minutes, and the CD spectrum of HSA was recorded in the wavelength range of 200-500 nm . The concentration of HSA was kept at 2×10^−6 M, and the pesticide was (0-20)×10^−6 m. Firstly, HSA was measured, and then the ratio of HSA to pesticides needed to be determined specifically, which was preliminarily determined according to the ratio of 1:1, 1:2 and 1:3.
According to the following equation, the result of CD spectrum was usually expressed as the mean residue ellipticity (MRE), and the unit was deg·cm^2·dmol^−1. MRE=ObservedCD(mdeg)/(10Cpnl) (9);
in which Cp is the molar concentration of protein, n is the number (585) of amino acid residues, and 1 is the path length (1 mm). The α helicity of free and bound HSA is calculated from MRE values using the following formula: α−Helix(%)=[(−MRE208−4000)×100]/(33000-4000) (10)
in which the MRE208 is the MRE value observed at 208 nm , 4000 is the MRE value of random coil conformation at 208 nm , and […] is the MRE value of pure α helix at 208 nm .

[3] = cited from earlier work; for LD50: modelling table; for Toxicity: toxicity grade by LD50, trailing figure = number of pesticides in group

T1 sequence (P02768 25-609): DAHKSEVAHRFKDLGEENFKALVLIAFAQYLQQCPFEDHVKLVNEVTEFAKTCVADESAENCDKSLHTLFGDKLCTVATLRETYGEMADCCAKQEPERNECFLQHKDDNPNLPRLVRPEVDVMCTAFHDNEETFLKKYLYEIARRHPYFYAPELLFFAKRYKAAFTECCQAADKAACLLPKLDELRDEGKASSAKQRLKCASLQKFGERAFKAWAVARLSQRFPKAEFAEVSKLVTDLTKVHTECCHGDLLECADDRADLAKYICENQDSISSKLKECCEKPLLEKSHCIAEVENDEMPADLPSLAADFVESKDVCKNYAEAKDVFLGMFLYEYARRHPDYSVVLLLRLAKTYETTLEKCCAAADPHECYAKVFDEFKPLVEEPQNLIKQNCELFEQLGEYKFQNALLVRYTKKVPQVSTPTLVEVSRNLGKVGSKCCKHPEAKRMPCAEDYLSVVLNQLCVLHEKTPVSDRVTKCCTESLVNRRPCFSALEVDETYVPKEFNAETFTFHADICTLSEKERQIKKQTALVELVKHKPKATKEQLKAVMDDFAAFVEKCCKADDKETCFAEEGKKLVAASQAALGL

Row | Structure (SMILES) | Ksv (37°) [1] | ΔG^0 ([1]; 296 K) [kcal/mol] | Kq ([1]; 296 K) | Ksv ([1]; 296 K) | n (number of binding sites) ([1]; 296 K) | ΔG^0 ([1]; 303 K) [kcal/mol] | Kq ([1]; 303 K) | Ksv ([1]; 303 K) | n (number of binding sites) ([1]; 303 K) | ΔG^0 ([1]; 310 K) [kcal/mol] | R (binding distance) ([1]; 310 K) [nm] | Kq ([1]; 310 K) | Ksv ([1]; 310 K) | n (number of binding sites) ([1]; 310 K) | fluorescence of HSA quenched by pesticide ([1]; 310 K) | ΔH^0 [1] [kcal/mol] | ΔS^0 [1] [J · mol^−1 · K^−1] | Number of binding sites/n [1] | α-helix contents ([2]; 5:1 (Pesticide:HSA)) [%] | α-helix contents ([2]; 10:1 (Pesticide:HSA)) [%] | also measured
1 | CNC(=O)O/N=C(\SC)C(=O)N(C)C [Oxamyl, oxamyl] | 66054.55780 | -4.8592 | 5.229 ± 0.185 10^12 M^−1s^−1 | 5.229 ± 0.185 10^4 M^−1 | 0.774 ± 0.016 | -5.158 | 5.735 ± 0.073 10^12 M^−1s^−1 | 5.735 ± 0.073 10^4 M^−1 | 0.789 ± 0.004 | -5.4567 | 2.564 | 6.605 ± 0.058 10^12 M^−1s^−1 | 6.605 ± 0.058 10^4 M^−1 | 0.807 ± 0.003 | quenched | 7.7713 | 178.534 | 0.8074 | 50.883 | 49.354 | ΔG(37°) [1]: −22.83; Kd ([1]; 296 K, read-out: Ka (binding constant)): 255 µM; Kd ([1]; 303 K, read-out: Ka (binding constant)): 195 µM; Kd ([1]; 310 K, read-out: Ka (binding constant)): 141 µM; Binding distance/r [1]: 2.564; LD50 [3]: 2.5 mg/kg; Toxicity [3]: Highly
2 | CNC(=O)Oc1cc(C)cc(C(C)C)c1 [Promecarb, promecarb] | 58172.07681 | -3.5213 | 2.409 ± 0.154 10^12 M^−1s^−1 | 2.409 ± 0.154 10^4 M^−1 | 0.645 ± 0.004 | -4.316 | 3.705 ± 0.060 10^12 M^−1s^−1 | 3.705 ± 0.060 10^4 M^−1 | 0.704 ± 0.008 | -5.1107 | 2.316 | 5.817 ± 0.219 10^12 M^−1s^−1 | 5.817 ± 0.219 10^4 M^−1 | 0.769 ± 0.009 | quenched | 30.0872 | 475.061 | 0.7688 | 48.610 | 48.538 | ΔG(37°) [1]: −21.38; Kd ([1]; Ka (binding constant), 296 K): 2430 µM; Kd ([1]; Ka (binding constant), 303 K): 822 µM; Kd ([1]; Ka (binding constant), 310 K): 241 µM; Binding distance/r [1]: 2.316; LD50 [3]: 35 mg/kg; Toxicity [3]: Highly
3 | CNC(=O)Oc1ccccc1OC(C)C [Propoxur, propoxur] | 50525.98687 | -4.1912 | 3.425 ± 0.132 10^12 M^−1s^−1 | 3.425 ± 0.132 10^4 M^−1 | 0.706 ± 0.014 | -4.5607 | 4.353 ± 0.121 10^12 M^−1s^−1 | 4.353 ± 0.121 10^4 M^−1 | 0.729 ± 0.013 | -4.93 | 3.138 | 5.053 ± 0.120 10^12 M^−1s^−1 | 5.053 ± 0.120 10^4 M^−1 | 0.757 ± 0.011 | quenched | 11.43 | 220.816 | 0.7565 | 50.121 | 49.341 | ΔG(37°) [1]: −20.63; Kd ([1]; Ka (binding constant), 296 K): 794 µM; Kd ([1]; Ka (binding constant), 303 K): 527 µM; Kd ([1]; Ka (binding constant), 310 K): 330 µM; Binding distance/r [1]: 3.138; LD50 [3]: 41 mg/kg; Toxicity [3]: Highly
4 | CNC(=O)ON=C(CSC)C(C)(C)C [Thiofanox, thiofanox] | 58762.03726 | -4.2899 | 3.871 ± 0.035 10^12 M^−1s^−1 | 3.871 ± 0.035 10^4 M^−1 | 0.714 ± 0.014 | -4.5667 | 4.728 ± 0.064 10^12 M^−1s^−1 | 4.728 ± 0.064 10^4 M^−1 | 0.725 ± 0.005 | -4.8435 | 1.883 | 5.876 ± 0.198 10^12 M^−1s^−1 | 5.876 ± 0.198 10^4 M^−1 | 0.730 ± 0.003 | quenched | 7.4152 | 165.452 | 0.7299 | 48.904 | 48.180 | ΔG(37°) [1]: −20.27; Kd ([1]; Ka (binding constant), 296 K): 688 µM; Kd ([1]; Ka (binding constant), 303 K): 496 µM; Kd ([1]; Ka (binding constant), 310 K): 390 µM; Binding distance/r [1]: 1.883; LD50 [3]: 8.5 mg/kg; Toxicity [3]: Highly
5 | CNC(=O)O/N=C(\CS(C)(=O)=O)C(C)(C)C [Thiofanox-sulfone, thiofanox sulfone] | 55736.87796 and 53392.17364 | -4.3031 | 3.906 ± 0.043 10^12 M^−1s^−1 | 3.906 ± 0.043 10^4 M^−1 | 0.719 ± 0.011 | -4.9596 | 4.102 ± 0.034 10^12 M^−1s^−1 | 4.102 ± 0.034 10^4 M^−1 | 0.786 ± 0.008 | -5.6159 | 2.907 | 5.574 ± 0.138 10^12 M^−1s^−1 | 5.574 ± 0.138 10^4 M^−1 | 0.848 ± 0.004 | quenched | 23.451 | 392.314 | 0.8476 and 0.7456 | 51.076 | 50.482 | Ka (binding constant) ([1]; 296 K): (1.559 ± 0.162) × 10^3 M^−1; Ka (binding constant) ([1]; 303 K): (3.514 ± 0.247) × 10^3 M^−1; Ka (binding constant) ([1]; 310 K): (9.450 ± 0.597) × 10^3 M^−1; Toxicity [3]: Highly

Reference: patent publication US12385839B2, “Use of protein in predicting drug properties” (priority 2021, dated 2025)
